# Test results reported in patent US20050049305A1, “Use of L-carnitine in the prevention and treatment of hearing loss” (priority 2002, published 2005).
# Where two headings read alike, the source gives them in different places. Marks after values point to notes of the source that are not given here.
# Assays:
# [1] = Coleman et al. 2001; cited from earlier work
# [2] = test system: outer hair cells (OHCs) and stereocilia bundles; test: Gentamicin-induced cochlear damage, confocal and scanning electron microscopy; type: in vivo, guinea pig
# Procedure: (§1) Guinea pigs were used to evaluate the impact of prenatal LCAR supplementation on stress- and gentamicin-induced mortality in newborns because this animal model closely resembles perinatal human physiology. Pregnant guinea pigs (n=25) were divided in five groups. […] In group #2, stress was induced by intraperitoneal injections of normal saline (once daily from days 51 to 57 of gestation). Guinea pigs in group #3 were injected with gentamicin (100 mg/kg once daily from days 51 to 57 of gestation). Finally, groups #4 and #5 were injected with gentamicin as described for group #3, but received LCAR supplementation in their water supply (1 mg/ml˜100 mg/kg/day) starting either 2 weeks prior (Group #4) or simultaneously with gentamicin (Group #5). Newborn mortality was defined as either stillborn or death within the first 48 hrs of life.
# Confocal and electron microscopy studies indicate that gentamicin induces both sensory cell death and stereocilia disruption in mothers and newborn guinea pigs. […] Whereas in Control animals the three rows of OHCs look generally intact (FIG. 6B), cochleas from guinea pigs treated with gentamicin show “scars” where supporting cells replaced dead OHCs (FIG. 6C). In addition, stereocilia bundles look completely disorganized, with significant structural changes and even “giant” stereocilia (FIG. 6D). […]
# [3] = test system: guinea pigs (mothers and newborns); test: Gentamicin-induced sensorineural hearing loss, ABR; type: in vivo
# Procedure: as §1, with “Finally, groups #4 and #5 were injected with gentamicin as described for group #3, but received LCAR supplementation in their water supply (1 mg/ml˜100 mg/kg/day) starting either 2 weeks prior (Group #4) or simultaneously with gentamicin (Group #5).” left out
# We investigated the hearing condition and cochlear integrity in the guinea pigs from the five experimental groups described in the above paragraph. Typical ABR recordings from newborn guinea pigs are shown in FIG. 4, while FIG. 5 describes the statistical results. […] Gentamicin (group #3), in contrast, induced a significant increase in hearing threshold in respect to saline (group #2) in mothers (49±3 dB vs. 28±2; P≦0.01) and newborns (38±2 vs. 29±1; P≦0.01).
# [4] = test system: guinea pigs (mothers and newborns); test: Noise-induced hearing loss (ABR) and cochlear damage; type: in vivo, guinea pig
# Procedure: (§2) In order to evaluate noise-induced neonatal mortality and the potential impact of prenatal LCAR supplementation, six pregnant guinea pigs were divided into three groups of two animals each. Pregnant guinea pigs in groups #1 and #2 were exposed 4 hours a day during 4 consecutive days to broadband noise (100 Hz-10 kHz) at 95 SPL during days 50 to 53 of gestation. In addition, guinea pigs in group #2 received daily LCAR supplementation in their water supply (1 mg/ml˜100 mg/kg/day) from day 28 of gestation. […] Noise exposure was performed in a sound booth, with the animals in individual plastic cages placed on a wire shelf at ˜0.8 m above the floor. Since at this time of pregnancy guinea pigs spend most of the time resting with the abdomen in contact with the cage floor, the speakers were placed below the shelf, with the sound waves directed toward the cage's floor. Sound pressure levels were measured with a calibrated digital sound level meter (Radio Shack #33-2055) inside the plastic cages.
# Noise-induced cochlear damage and changes in hearing threshold were evaluated in mothers and newborns (ten days after delivery) in the three groups described in the above paragraph. We found moderate threshold shifts (˜9 dB) in mothers exposed to noise (group #1). […] In newborns, we also observed a higher hearing threshold in noise-exposed animals than in those of the control group (36±2 dB group #1 and 30±1 dB group #2 vs. 22±1 dB group #3 control).
# Similar damage, but concentrated in smaller regions, was present in cochleas from LCAR-supplemented animals.
# [5] = test system: newborn guinea pigs; test: Noise-induced neonatal mortality; type: in vivo, guinea pig; details: group #2: broadband noise 95 SPL 4 h/day, days 50-53 of gestation; LCAR 1 mg/ml in water from day 28
# Procedure: as §2
# The experimental protocol assume normal delivery after 59-62 days of pregnancy. In fact, control animals delivered at days 59 and 61, respectively. […] Neonatal mortality—expressed as the number of stillborn or newborn death within the first 48 hrs of life over the total number of animals delivered—was 77% in group #1 ( 7/9), 9% in group #2 ( 1/11), and 0% in group #3 (0/9).
# [6] = humans, cited from earlier work
# [7] = test system: newborn guinea pigs; test: Gentamicin-induced neonatal mortality; type: in vivo, guinea pig
# Procedure: as §1
# [8] = test system: HEI-OC1 cells; test: LCAR prevention of cisplatin- and gentamicin-induced apoptosis, colorimetric CaspACE assay; type: cell-based, mouse; details: 48 hours pre-incubation with 2 mg/ml LCAR
# Text: We further investigated whether LCAR was able to prevent cisplatin- and gentamicin-induced apoptosis in HEI-OC1 cells.
# [9] = test system: outer hair cells (OHCs) of organ of Corti; type: in vivo
# Procedure: Pregnant guinea pigs were divided in three groups of 4 each. […] Those from group #2 also received a supplementary dose of LCAR in their drinking water (1 mg/ml ad libitum˜100 mg/kg/day) during the second half of the pregnancy and the immediate postnatal period. Guinea pigs from group #3 (4 mothers & 10 newborns), the control group, were injected with saline solution. Two weeks after delivery, all guinea pigs (mothers and newborns) were anesthetized by intraperitoneal injections of ketamine hydrochloride (60 mg/kg) and xylazine hydrochloride (5 mg/kg), and their auditory brainstem responses (ABR) were measured. They were then euthanized with CO2, and potential cochlear damage was evaluated by confocal microscopy.
# The ABR results described in FIG. 1 were independently corroborated by confocal microscopy of the organ of Corti in mothers and newborns. […] The results of FIG. 2 are quantified in Table 1 and FIG. 3.
# [10] = test system: HEI-OC1 cells; test: Caspase-8 and caspase-9 assays in cisplatin-treated cells; type: cell-based, mouse
# [11] = test system: guinea pigs (mothers and newborns); test: Cisplatin-induced sensorineural hearing loss, auditory brainstem response (ABR); type: in vivo, guinea pig; details: two weeks after delivery, cisplatin 4 mg/kg i.p. once a day for 2 days, LCAR 1 mg/ml in drinking water, mean ±S.E.M.
# [12] = test system: HEI-OC1 cells; test: Cisplatin-induced apoptosis, DNA laddering and TUNEL; type: cell-based, mouse
# Text: The HEI-OC1 cell line was cloned from cochlear half-turn explants from of an Immortomouse™. […] They are polygonal squamous cells with a dense perinuclear region containing a dense accumulation of multivesicular structures. These multivesicular structures were also observed in the rest of the cytoplasm, although at a lower density. HEI-OC1 cells co-express markers specific for both sensory and supporting cells. Expression of Math-1 and myosin VIIa by these cells indicate that HEI-OC1 cells are indeed sensory hair cell precursors.
# Apoptosis was confirmed using TUNEL (ApoAlert DNA Fragmentation Assay—Clontech, Palo Alto, Calif.).
# [13] = LCAR + Gentamicin = LCAR two weeks prior, Gentamicin + LCAR = simultaneous
compound,measurement,setting,value
"CC(=O)O[C@H](CC(=O)[O-])C[N+](C)(C)C [ALCAR, acetyl-L-carnitine]",effect on noise-induced hearing loss,[1],attenuates noise-induced hearing loss
"C[N+](C)(C)C[C@H](O)CC(=O)[O-] [LCAR, L-carnitine]",effect on gentamicin-induced OHC death,[2]; LCAR prior vs simultaneous,significantly prevented only in animals supplemented with LCAR two weeks prior gentamicin treatment
same,effect on gentamicin-induced stereocilia disruption,[2]; LCAR provided either prior or simultaneously with gentamicin,inhibit gentamicin-induced stereocilia disruption
same,effect of LCAR supplementation on gentamicin ototoxicity (ABR),[3]; LCAR from 28 days of pregnancy (group #4) or coincidental with gentamicin (group #5),attenuates the ototoxic effects of gentamicin in both mothers and pups
same,noise-induced cochlear damage (microscopy),[4]; LCAR-supplemented noise-exposed animals,significant decrease in cochlear damage
same,hearing threshold shift in noise-exposed mothers,"[4]; mothers, LCAR supplemented, ten days after delivery",no changes were observed
same,hearing threshold in newborns,"[4]; newborns, group #2 noise + LCAR, ten days after delivery",30±1 dB
same,neonatal mortality (stillborn or death within first 48 hrs),[5],9%
same,dietary LCAR absorbed,[6]; dietary,54-87%
same,LCAR filtered by the kidney that is reabsorbed,[6],90-98%
same,neonatal mortality (stillborn or death within first 48 hrs),[7]; group #4: gentamicin plus LCAR 1 mg/ml in water starting 2 weeks prior,15%
same,neonatal mortality (stillborn or death within first 48 hrs),[7]; group #5: gentamicin plus LCAR 1 mg/ml in water starting simultaneously,9%
same,"gentamicin-induced cell apoptosis (caspase-3, CaspACE)",[8]; then 24 hours 50 μM gentamicin,significantly inhibited
same,"cisplatin-induced cell apoptosis (caspase-3, CaspACE)",[8]; then 24 hours 200 μM cisplatin,significantly inhibited
same,effect of LCAR supplementation on cisplatin-induced OHC damage,[9]; mothers and newborns,attenuates this cisplatin-induced OHC damage
gentamicin,"OHC death, OHCs % Row #1",[2]; [13],0.6* %
same,"OHC death, OHCs % Row #2",[2]; [13],0.9** %
same,"OHC death, OHCs % Row #3",[2]; [13],0.8** %
same,"OHC death, Total %",[2]; [13],0.7** %
same,"ABR hearing threshold, mothers","[3]; mothers, group #3 gentamicin 100 mg/kg daily, days 51-57 of gestation",49±3 dB
same,"ABR hearing threshold, newborns","[3]; newborns, group #3 gentamicin given to pregnant mothers",38±2 dB
same,neonatal mortality (stillborn or death within first 48 hrs),"[7]; group #3: gentamicin 100 mg/kg once daily, days 51 to 57 of gestation",54%
"N.N.[Cl][Pt][Cl] [Cisplatin, cisplatin]",caspase-9 activity,[10]; 12-hour incubation with 100 μM cisplatin,increased about five-fold
same,caspase-8 activity,[10]; cisplatin-treated HEI-OC1 cells,little change in activity
same,average ABR hearing threshold,[11],46±4 dB
same,incubation time after which DNA laddering was visible,"[12]; 100 μM cisplatin, periods 6 hours to 24 hours",18 h
same,cisplatin concentration at which apoptosis (laddering pattern) was first detected,"[12]; 24 hours incubation, doses 25 μM to 500 μM",100 µM
same,cisplatin-induced inner hair cell (IHC) damage,"[9]; guinea pig, in vivo",no significant
same,loss of OHCs by cochlear turn,"[9]; guinea pig, in vivo",significant loss of OHCs in the first and second turn of the cochlea
same,Total % (damaged/total OHCs),[9]; mothers,36.0 (297/824) %
same,damaged OHC (%) Row #1,[9]; mothers,39.6%
same,damaged OHC (%) Row #2,[9]; mothers,32.6%
same,damaged OHC (%) Row #3,[9]; mothers,35.9%
same,Total % (damaged/total OHCs),[9]; newborns,34.9 (443/1268) %
same,damaged OHC (%) Row #1,[9]; newborns,50.2%
same,damaged OHC (%) Row #2,[9]; newborns,37.9%
same,damaged OHC (%) Row #3,[9]; newborns,16.9%
